The record followed here is article PMC9011219 (Annals of Translational Medicine, 2022).

One may read the IC50 as the point on the concentration scale where inhibition reaches its midpoint.

One assay addresses BuChE (Equus caballus, UniProt P81908). Description: Ellman assay. It is filed as biochemical. (Ellman's reagent forms a yellow product with free thiols.)
Another assay concerns the target AChE (Electrophorus electricus, UniProt O42275). Description: Ellman assay. It is filed as biochemical.

Chain of AChE (O42275 24-633): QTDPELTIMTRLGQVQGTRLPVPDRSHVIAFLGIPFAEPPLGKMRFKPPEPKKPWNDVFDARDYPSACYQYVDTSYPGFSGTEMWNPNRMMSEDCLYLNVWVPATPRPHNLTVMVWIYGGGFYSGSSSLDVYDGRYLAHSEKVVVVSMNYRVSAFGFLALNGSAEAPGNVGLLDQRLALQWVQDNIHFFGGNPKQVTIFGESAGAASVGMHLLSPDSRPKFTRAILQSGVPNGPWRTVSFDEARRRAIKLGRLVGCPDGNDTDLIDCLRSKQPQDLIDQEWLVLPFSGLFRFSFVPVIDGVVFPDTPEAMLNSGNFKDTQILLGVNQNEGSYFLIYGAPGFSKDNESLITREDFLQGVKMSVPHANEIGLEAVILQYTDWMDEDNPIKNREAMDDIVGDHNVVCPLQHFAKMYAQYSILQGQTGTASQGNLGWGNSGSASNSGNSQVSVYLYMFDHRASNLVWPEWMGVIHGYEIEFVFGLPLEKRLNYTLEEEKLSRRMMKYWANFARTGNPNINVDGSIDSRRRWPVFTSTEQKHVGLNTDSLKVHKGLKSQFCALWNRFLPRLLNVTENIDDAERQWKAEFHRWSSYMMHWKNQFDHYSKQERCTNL
Chain of BuChE (P81908 whole entry): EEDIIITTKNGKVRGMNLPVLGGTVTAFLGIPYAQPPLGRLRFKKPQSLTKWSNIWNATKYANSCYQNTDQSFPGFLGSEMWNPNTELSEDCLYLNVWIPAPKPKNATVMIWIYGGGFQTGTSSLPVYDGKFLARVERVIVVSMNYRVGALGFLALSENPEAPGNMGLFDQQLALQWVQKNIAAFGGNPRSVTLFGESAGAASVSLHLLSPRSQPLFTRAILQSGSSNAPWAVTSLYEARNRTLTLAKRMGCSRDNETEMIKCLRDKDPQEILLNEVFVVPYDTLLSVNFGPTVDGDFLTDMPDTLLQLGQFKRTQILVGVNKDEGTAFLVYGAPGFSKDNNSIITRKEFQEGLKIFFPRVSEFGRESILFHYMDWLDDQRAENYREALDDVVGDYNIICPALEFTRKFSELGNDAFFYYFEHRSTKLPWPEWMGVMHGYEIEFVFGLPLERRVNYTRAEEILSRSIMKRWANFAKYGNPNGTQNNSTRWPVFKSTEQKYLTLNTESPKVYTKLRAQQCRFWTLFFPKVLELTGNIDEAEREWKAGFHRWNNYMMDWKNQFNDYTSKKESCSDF

`O=C(NCCc1c[nH]c2ccccc12)Nc1cccc2cccnc12` [a1, 1-(2-(1H-indol-3-yl)ethyl)-3-(quinolin-8-yl) urea] had an IC50 on BuChE of 10.3 ± 0.7 µM.

Molecule `COc1ccc2[nH]cc(CCNC(=O)Nc3cccc4cccnc34)c2c1` [a2, 1-(2-(5-methoxy-1H-indol-3-yl)ethyl)-3-(quinolin-8-yl) urea] had an IC50 on AChE of 29.2 ± 1.2 µM.

On to `O=C(NCCc1c[nH]c2ccc(O)cc12)Nc1cccc2cccnc12` [a3, 1-(2-(5-hydroxy-1H-indol-3-yl)ethyl)-3-(quinolin-8-yl) urea], for which the half-maximal inhibitory concentration (IC50) was determined as 36.3 ± 0.7 µM against AChE and 8.78 ± 0.3 µM against BuChE.

As to `CN(C)C(=O)Oc1ccc2[nH]cc(CCNC(=O)Nc3cccc4cccnc34)c2c1` [a4, 3-(2-(3-(quinolin-8-yl)ureido)ethyl)-1H-indol-5-yl dimethylcarbamate], the IC50 stood at 35.6 ± 0.6 µM at AChE and 3.3 ± 0.2 µM at BuChE.

On to `CCN(C)C(=O)Oc1ccc2[nH]cc(CCNC(=O)Nc3cccc4cccnc34)c2c1` [a5, 3-(2-(3-(quinolin-8-yl)ureido)ethyl)-1H-indol-5-yl ethyl (methyl) carbamate], for which the midpoint of inhibition on BuChE, the IC50, lay at 2.6 ± 0.4 µM.

`O=C(CNc1cccc2cccnc12)NCCc1c[nH]c2ccccc12` [b1, N-(2-(1H-indol-3-yl)ethyl)-2-(quinolin-8-ylamino) acetamide] registered an IC50 at AChE of 11.2 ± 0.4 µM.

As to `COc1ccc2[nH]cc(CCNC(=O)CNc3cccc4cccnc34)c2c1` [b2, N-(2-(5-methoxy-1H-indol-3-yl)ethyl)-2-(quinolin-8-ylamino) acetamide], the IC50 at AChE came out at 13 ± 0.2 µM.

The molecule `O=C(CNc1cccc2cccnc12)NCCc1c[nH]c2ccc(O)cc12` [b3, N-(2-(5-hydroxy-1H-indol-3-yl)ethyl)-2-(quinolin-8-ylamino) acetamide] returned an IC50 on AChE of 4.34 ± 0.1 µM.

Take `CN(C)C(=O)Oc1ccc2[nH]cc(CCNC(=O)CNc3cccc4cccnc34)c2c1` [b4, 3-(2-(2-(quinolin-8-ylamino)acetamido)ethyl)-1H-indol-5-yl dimethylcarbamate]: the results for the IC50 on AChE and against BuChE were 11.2 ± 0.3 µM and 0.9 ± 0.1 µM, respectively.

As to `CCN(C)C(=O)Oc1ccc2[nH]cc(CCNC(=O)CNc3cccc4cccnc34)c2c1` [b5, 3-(2-(2-(quinolin-8-ylamino)acetamido)ethyl)-1H-indol-5-yl ethyl (methyl) carbamate], the IC50 against AChE amounted to 13.7 ± 0.6 µM; against BuChE, 0.8 ± 0.1 µM.

`c1cnc2c(NCCc3c[nH]c4ccccc34)cccc2c1` [c1, N-(2-(1H-indol-3-yl)ethyl) quinolin-8-amine]: the IC50 was found to be 32.7 ± 1.4 µM on AChE and 13.5 ± 0.4 µM at BuChE.

On to `COc1ccc2[nH]cc(CCNc3cccc4cccnc34)c2c1` [c2, N-(2-(5-methoxy-1H-indol-3-yl)ethyl) quinolin-8-amine], for which the IC50 against BuChE turned out to be 4.5 ± 0.3 µM.

Take `Oc1ccc2[nH]cc(CCNc3cccc4cccnc34)c2c1` [c3, 3-(2-(quinolin-8-ylamino)ethyl)-1H-indol-5-ol]: the IC50 at BuChE is 4.3 ± 0.4 µM.

In turn, `CN(C)C(=O)Oc1ccc2[nH]cc(CCNc3cccc4cccnc34)c2c1` [c4, 3-(2-(quinolin-8-ylamino)ethyl)-1H-indol-5-yl dimethylcarbamate] yielded an IC50 against BuChE of 0.9 ± 0.1 µM.

Consider `CCN(C)C(=O)Oc1ccc2[nH]cc(CCNc3cccc4cccnc34)c2c1` [c5, 3-(2-(quinolin-8-ylamino)ethyl)-1H-indol-5-yl ethyl (methyl) carbamate], for which the figures for the IC50 on AChE and on BuChE were 25.1 ± 1.7 µM and 1.1 ± 0.1 µM, respectively.
